Among the data in patent US20230086702A1, “SUBSTITUTED 2-AMINO-PYRAZOLYL-[1,2,4]TRIAZOLO[1,5A]PYRIDINE DERIVATIVES AND USE THEREOF” (The Johns Hopkins University, priority 2019, published 2023) are IC50 values, retold here.

The target of assay [1] is T1, DLK (Homo sapiens, UniProt Q12852).
T1 construct: 10 nM DLK, catalytic domain, Carna Biosiences; purchased Carna Biosciences ('Carna Biosiences' [sic])
T1 sequence (Q12852 125-366 limits assumed): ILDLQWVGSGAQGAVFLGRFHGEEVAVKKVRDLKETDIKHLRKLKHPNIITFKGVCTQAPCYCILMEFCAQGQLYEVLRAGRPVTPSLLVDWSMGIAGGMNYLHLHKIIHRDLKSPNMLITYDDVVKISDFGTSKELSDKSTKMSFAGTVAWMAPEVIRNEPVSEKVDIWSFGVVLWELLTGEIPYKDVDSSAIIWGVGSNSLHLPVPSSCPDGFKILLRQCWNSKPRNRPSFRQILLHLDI
As to the kind of experiment: DLK biochemical assay (TR-FRET, MKK7 phosphorylation). Put shortly: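 DLK catalytic domain (10 nM) phosphorylates His-MKK7 (15 nM) at 60 μM ATP for 90 min at RT in pH 7.5 Hepes buffer (final concentrations). Phospho-T275/S277 is detected by TR-FRET (Eu anti-phospho donor, XL665 anti-His acceptor) after 16 h at 37° C (1536 format) or 4° C (384 format).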

For assay [2], the target named is T2, LZK (Homo sapiens, UniProt O43283).
T2 construct: 10 nM LZK, catalytic domain, Carna Biosiences in assay buffer; purchased Carna Biosciences ('Carna Biosiences' [sic])
T2 sequence (O43283 168-409 limits assumed): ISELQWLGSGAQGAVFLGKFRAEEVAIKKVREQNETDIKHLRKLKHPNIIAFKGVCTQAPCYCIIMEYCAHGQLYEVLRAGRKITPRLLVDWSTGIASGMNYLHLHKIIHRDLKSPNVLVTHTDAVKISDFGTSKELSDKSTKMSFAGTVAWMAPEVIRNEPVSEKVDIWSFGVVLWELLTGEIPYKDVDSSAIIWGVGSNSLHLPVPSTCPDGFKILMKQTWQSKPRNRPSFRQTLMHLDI
The assay is described as follows: LZK biochemical assay (TR-FRET, MKK7 phosphorylation). Put shortly: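 LZK catalytic domain (10 nM) phosphorylates His-MKK7 (15 nM) with 15 µM ATP, all final, for 90 min at RT in HEPES buffer pH 7.5 with MgCl2. Phospho-T275/S277 detected by TR-FRET (Eu anti-phospho donor, XL665 anti-His acceptor) after 16 h at 32 °C in EDTA stop buffer. Inhibition lowers the 665/Eu ratio.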
For orientation: Time-resolved FRET reads energy transfer from a long-lived donor to a nearby acceptor.

Each structure is given as a SMILES string.

For orientation: IC50 means the concentration that gives 50% inhibition. A lower IC50 goes with greater potency in that assay. On to `CC[C@@H](c1ccc(OC(F)(F)F)nc1)n1cc(-c2cc(-c3cnn(CC(F)(F)F)c3)n3nc(N)nc3c2)cn1` (single isomer, unassigned) [II-116, 5-[1-(2,2,2-Trifluoroethyl)-1H-pyrazol-4-yl]-7-(1-{1-[6-(trifluoromethoxy)pyridin-3-yl]propyl}-1H-pyrazol-4-yl)[1,2,4]triazolo[1,5-a]pyridin-2-amine], for which the IC50 was determined as 9.7 nM in assay [1] and 22 nM in assay [2].

For `CC(C)C(c1ccc(C(F)(F)F)nc1)n1cc(-c2cc(-c3ccc(C(F)(F)F)nc3)c3nc(N)nn3c2)cn1` (single isomer, unassigned) [II-42, 6-(1-{2-Methyl-1-[6-(trifluoromethyl)pyridin-3-yl]propyl}-1H-pyrazol-4-yl)-8-[6-(trifluoromethyl)pyridin-3-yl][1,2,4]triazolo[1,5-a]pyridin-2-amine], the IC50 in assay [1] came out at 18 nM; in assay [2] it was 52 nM.

As to `CCC(c1ccc(C(F)(F)F)nc1)n1cc(-c2cc(-c3ccc(C4CC4)nc3)n3nc(N)nc3c2)cn1` (racemic) [II-55, 5-(6-Cyclopropylpyridin-3-yl)-7-(1-{1-[6-(trifluoromethyl)pyridin-3-yl]propyl}-1H-pyrazol-4-yl)[1,2,4]triazolo[1,5-a]pyridin-2-amine], the IC50 in assay [1] stood at 21 nM; in assay [2] it was 24 nM.

With `Nc1nc2cc(-c3cnn(Cc4ccccc4)c3)cc(-c3cnn(C4CCOCC4)c3)n2n1` [II-126, 7-(1-Benzyl-1H-pyrazol-4-yl)-5-[1-(tetrahydro-2H-pyran-4-yl)-1H-pyrazol-4-yl][1,2,4]triazolo[1,5-a]pyridin-2-amine], the IC50 amounted to 60 nM in assay [1] and 220 nM in assay [2].

For the compound `CCC(c1ccc(C(F)(F)F)nc1)n1cc(-c2cc(-c3cc(CO)ccc3Cl)c3nc(N)nn3c2)cn1` (racemic) [II-1, {3-[2-Amino-6-(1-{1-[6-(trifluoromethyl)pyridin-3-yl]propyl}-1H-pyrazol-4-yl)[1,2,4]triazolo[1,5-a]pyridin-8-yl]-4-chlorophenyl}methanol], the IC50 in assay [1] was found to be 6.3 nM; in assay [2], 2.3 nM.

For `Nc1nc2c(-c3cccc(S(=O)(=O)C(F)(F)F)c3)cc(-c3cnn(C(c4ccc(C(F)(F)F)nc4)C4CCOCC4)c3)cn2n1` (single isomer, unassigned) [II-20, 6-(1-{Tetrahydro-2H-pyran-4-yl[6-(trifluoromethyl)pyridin-3-yl]methyl}-1H-pyrazol-4-yl)-8-{3-[(trifluoromethyl)sulfonyl]phenyl}[1,2,4]triazolo[1,5-a]pyridin-2-amine], the IC50 is 71 nM in assay [1] and 140 nM in assay [2].

Turning to `Nc1nc2c(-c3cc(CO)ccc3Cl)cc(-c3cnn(C(c4ccc(C(F)(F)F)nc4)C4CCOCC4)c3)cn2n1` (single isomer, unassigned) [II-6, {3-[2-Amino-6-(1-{tetrahydro-2H-pyran-4-yl[6-(trifluoromethyl)pyridin-3-yl]methyl}-1H-pyrazol-4-yl)[1,2,4]triazolo[1,5-a]pyridin-8-yl]-4-chlorophenyl}methanol], the IC50 in assay [1] was 46 nM; in assay [2], 6.7 nM.

For `CCC(c1ccc(C(F)(F)F)nc1)n1cc(-c2cc(-c3ccc(C(F)(F)F)nc3)c3nc(N)nn3c2)cn1` (single isomer, unassigned) [II-39, 8-[6-(Trifluoromethyl)pyridin-3-yl]-6-(1-{1-[6-(trifluoromethyl)pyridin-3-yl]propyl}-1H-pyrazol-4-yl)[1,2,4]triazolo[1,5-a]pyridin-2-amine], the IC50 turned out to be 24 nM in assay [1] and 52 nM in assay [2].

Take `CS(=O)(=O)c1cccc(-c2cc(-c3cnn(C(c4ccc(C(F)(F)F)nc4)C4CCOCC4)c3)cn3nc(N)nc23)c1` (single isomer, unassigned) [II-15, 8-[3-(Methylsulfonyl)phenyl]-6-(1-{tetrahydro-2H-pyran-4-yl[6-(trifluoromethyl)pyridin-3-yl]methyl}-1H-pyrazol-4-yl)[1,2,4]triazolo[1,5-a]pyridin-2-amine]: the IC50 in assay [1] was determined as 0.9 nM; in assay [2] it was 2.7 nM.

Turning to `CCC(c1ccc(C(F)(F)F)nc1)n1cc(-c2cc(-c3ccnc(C4(F)CC4)c3)n3nc(N)nc3c2)cn1` (racemic) [II-31, 5-[2-(1-Fluorocyclopropyl)pyridin-4-yl]-7-(1-{1-[6-(trifluoromethyl)pyridin-3-yl]propyl}-1H-pyrazol-4-yl)[1,2,4]triazolo[1,5-a]pyridin-2-amine], the IC50 in assay [1] came to 26 nM; in assay [2], 6.1 nM.

For the compound `CC(C)C(c1ccc(C(F)F)nc1)n1cc(-c2cc(-c3ccc(OC(F)F)nc3)n3nc(N)nc3c2)cn1` (single isomer, unassigned) [II-51, 5-[6-(Difluoromethoxy)pyridin-3-yl]-7-(1-{1-[6-(difluoromethyl)pyridin-3-yl]-2-methylpropyl}-1H-pyrazol-4-yl)[1,2,4]triazolo[1,5-a]pyridin-2-amine], the results for the IC50 in assay [1] and in assay [2] were 13 nM and 25 nM, respectively.

In the case of `CC(C)C(c1ccc(C(F)(F)F)nc1)n1cc(-c2cc(-c3ccnc(C(F)(F)F)c3)n3nc(N)nc3c2)cn1` (single isomer, unassigned) [II-30, 7-(1-{2-Methyl-1-[6-(trifluoromethyl)pyridin-3-yl]propyl}-1H-pyrazol-4-yl)-5-[2-(trifluoromethyl)pyridin-4-yl][1,2,4]triazolo[1,5-a]pyridin-2-amine], the figures for the half-inhibitory concentration (IC50) in assay [1] and in assay [2] were 8.7 nM and 6.7 nM, respectively.

For the compound `CCC(c1ccc(OC(F)(F)F)nc1)n1cc(-c2cc(-c3ccc(=O)n(CC(F)(F)F)c3)c3nc(N)nn3c2)cn1` (single isomer, unassigned) [II-165, 5-[2-Amino-6-(1-{1-[6-(trifluoromethoxy)pyridin-3-yl]propyl}-1H-pyrazol-4-yl)[1,2,4]triazolo[1,5-a]pyridin-8-yl]-1-(2,2,2-trifluoroethyl)pyridin-2(1H)-one], the IC50 was 26 nM in assay [1] and 57 nM in assay [2].

Take `CCC(c1ccc(C(F)(F)F)nc1)n1cc(-c2cc(-c3ccc(C4CC4)nc3)n3nc(N)nc3c2)cn1` (single isomer, unassigned) [II-57, 5-(6-Cyclopropylpyridin-3-yl)-7-(1-{1-[6-(trifluoromethyl)pyridin-3-yl]propyl}-1H-pyrazol-4-yl)[1,2,4]triazolo[1,5-a]pyridin-2-amine]: the values for the 50% inhibitory concentration (IC50) in assay [1] and in assay [2] were 18 nM and 14 nM, respectively.

Turning to `Nc1nc2c(-c3ccn(CC(F)F)c(=O)c3)cc(-c3cnn(C(c4ccc(C(F)(F)F)nc4)C4CCOCC4)c3)cn2n1` (single isomer, unassigned) [II-174, 4-[2-Amino-6-(1-{tetrahydro-2H-pyran-4-yl[6-(trifluoromethyl)pyridin-3-yl]methyl}-1H-pyrazol-4-yl)[1,2,4]triazolo[1,5-a]pyridin-8-yl]-1-(2,2-difluoroethyl)pyridin-2(1H)-one], the IC50 in assay [1] was 1 nM; in assay [2], 4.3 nM.

As for `CC(C)C(c1ccc(C(F)(F)F)nc1)n1cc(-c2cc(-c3ccc(C4CC4)nc3)n3nc(N)nc3c2)cn1` (single isomer, unassigned) [II-60, 5-(6-Cyclopropylpyridin-3-yl)-7-(1-{2-methyl-1-[6-(trifluoromethyl)pyridin-3-yl]propyl}-1H-pyrazol-4-yl)[1,2,4]triazolo[1,5-a]pyridin-2-amine], the IC50 in assay [1] was found to be 11 nM; in assay [2], 7.9 nM.

On to `CCC(c1ccc(C(F)(F)F)nc1)n1cc(-c2cc(-c3ccn(C)c(=O)c3)c3nc(N)nn3c2)cn1` (single isomer, unassigned) [II-171, 4-[2-Amino-6-(1-{1-[6-(trifluoromethyl)pyridin-3-yl]propyl}-1H-pyrazol-4-yl)[1,2,4]triazolo[1,5-a]pyridin-8-yl]-1-methylpyridin-2(1H)-one], for which the values for the IC50 in assay [1] and in assay [2] were 9.3 nM and 41 nM, respectively.

Consider `CC(C)C(c1ccc(C(F)F)nc1)n1cc(-c2cc(-c3ccc(OC(F)F)nc3)n3nc(N)nc3c2)cn1` (racemic) [II-49, 5-[6-(Difluoromethoxy)pyridin-3-yl]-7-(1-{1-[6-(difluoromethyl)pyridin-3-yl]-2-methylpropyl}-1H-pyrazol-4-yl)[1,2,4]triazolo[1,5-a]pyridin-2-amine], for which the figures for the IC50 in assay [1] and in assay [2] were 31 nM and 84 nM, respectively.

Turning to `Cc1cc(-c2cc(-c3cnn(Cc4ccccc4)c3)cc3nc(N)nn23)cnn1` [II-88, 7-(1-Benzyl-1H-pyrazol-4-yl)-5-(6-methylpyridazin-4-yl)[1,2,4]triazolo[1,5-a]pyridin-2-amine], the figures for the 50% inhibitory concentration (IC50) in assay [1] and in assay [2] were 480 nM and 620 nM, respectively.
